Reference: patent publication US20230346952A1, “CANNABINOID GLYCOSIDE PRODRUGS AND METHODS OF SYNTHESIS” (priority 2015, published 2023)

What was measured:
Test in all cases: biochemical
[1] = target: safety screen panel of human pharmacological targets (Homo sapiens, UniProt P07550); details: read-out: percent inhibition: beta 2 (h) (antagonist radioligand)
[2] = target: safety screen panel of human pharmacological targets (Homo sapiens, UniProt P08588); details: read-out: percent inhibition: beta 1 (h) {agonist radioligand)
[3] = target: T1, safety screen panel of human pharmacological targets (Homo sapiens, UniProt P10275); details: read-out: percent inhibition: AR (h) (agonist radioligand)
T1 sequence (P10275 1-920): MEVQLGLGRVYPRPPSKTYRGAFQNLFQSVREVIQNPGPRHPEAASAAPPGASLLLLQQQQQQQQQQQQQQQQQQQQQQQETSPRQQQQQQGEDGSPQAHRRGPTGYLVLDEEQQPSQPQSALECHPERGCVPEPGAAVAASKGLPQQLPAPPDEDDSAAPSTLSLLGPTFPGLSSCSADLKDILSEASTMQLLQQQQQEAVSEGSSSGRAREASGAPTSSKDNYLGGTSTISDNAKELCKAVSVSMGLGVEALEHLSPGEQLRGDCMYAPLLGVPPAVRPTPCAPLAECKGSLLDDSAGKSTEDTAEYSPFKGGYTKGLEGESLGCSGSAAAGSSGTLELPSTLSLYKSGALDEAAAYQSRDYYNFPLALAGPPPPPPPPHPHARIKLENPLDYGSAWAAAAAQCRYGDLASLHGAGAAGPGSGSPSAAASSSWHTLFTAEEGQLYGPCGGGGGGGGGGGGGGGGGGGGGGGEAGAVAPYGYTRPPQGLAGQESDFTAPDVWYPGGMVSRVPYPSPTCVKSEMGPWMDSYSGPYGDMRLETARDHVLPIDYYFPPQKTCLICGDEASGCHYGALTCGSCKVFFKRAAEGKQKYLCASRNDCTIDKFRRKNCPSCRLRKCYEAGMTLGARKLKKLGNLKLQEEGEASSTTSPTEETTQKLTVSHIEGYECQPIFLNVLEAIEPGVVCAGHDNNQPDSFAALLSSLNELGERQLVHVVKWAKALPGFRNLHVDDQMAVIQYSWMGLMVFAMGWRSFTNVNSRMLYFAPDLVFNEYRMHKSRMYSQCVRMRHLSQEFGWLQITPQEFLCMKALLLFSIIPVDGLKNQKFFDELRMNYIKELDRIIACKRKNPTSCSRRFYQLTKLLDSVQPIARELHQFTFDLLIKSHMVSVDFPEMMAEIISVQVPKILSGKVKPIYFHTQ

[4] = target: safety screen panel of human pharmacological targets (Homo sapiens, UniProt P25021); details: read-out: percent inhibition: H2 (h) (antagonist radioligand)
[5] = target: T2, safety screen panel of human pharmacological targets (Homo sapiens, UniProt P32238); details: read-out: percent inhibition: CCK1 (CCKA) (h) (agonist radioligand)
T2 sequence (P32238 1-428): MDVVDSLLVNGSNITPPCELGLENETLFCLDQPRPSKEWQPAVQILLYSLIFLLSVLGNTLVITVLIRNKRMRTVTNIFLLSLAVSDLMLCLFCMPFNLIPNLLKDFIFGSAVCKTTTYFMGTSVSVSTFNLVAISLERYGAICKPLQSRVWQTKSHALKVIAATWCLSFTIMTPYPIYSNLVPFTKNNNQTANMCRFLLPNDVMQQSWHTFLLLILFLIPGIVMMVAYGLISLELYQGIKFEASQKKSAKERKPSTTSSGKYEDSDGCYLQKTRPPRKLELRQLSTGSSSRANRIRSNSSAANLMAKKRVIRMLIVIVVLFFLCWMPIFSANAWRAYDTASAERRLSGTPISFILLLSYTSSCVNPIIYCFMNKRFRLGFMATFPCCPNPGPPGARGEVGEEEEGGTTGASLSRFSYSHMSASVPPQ

[6] = target: safety screen panel of human pharmacological targets (Homo sapiens, UniProt P34972); details: read-out: percent inhibition: CB2 (h) (agonist radioligand)
[7] = target: safety screen panel of human pharmacological targets (Homo sapiens, UniProt P43681); details: read-out: percent inhibition: N neuronal alpha 4beta 2 h) (agonist radioligand)
[8] = target: T3, safety screen panel of human pharmacological targets (Homo sapiens, UniProt P46098); details: read-out: percent inhibition: 5-HT3 (h) (antagonist radioligand)
T3 sequence (P46098 24-478): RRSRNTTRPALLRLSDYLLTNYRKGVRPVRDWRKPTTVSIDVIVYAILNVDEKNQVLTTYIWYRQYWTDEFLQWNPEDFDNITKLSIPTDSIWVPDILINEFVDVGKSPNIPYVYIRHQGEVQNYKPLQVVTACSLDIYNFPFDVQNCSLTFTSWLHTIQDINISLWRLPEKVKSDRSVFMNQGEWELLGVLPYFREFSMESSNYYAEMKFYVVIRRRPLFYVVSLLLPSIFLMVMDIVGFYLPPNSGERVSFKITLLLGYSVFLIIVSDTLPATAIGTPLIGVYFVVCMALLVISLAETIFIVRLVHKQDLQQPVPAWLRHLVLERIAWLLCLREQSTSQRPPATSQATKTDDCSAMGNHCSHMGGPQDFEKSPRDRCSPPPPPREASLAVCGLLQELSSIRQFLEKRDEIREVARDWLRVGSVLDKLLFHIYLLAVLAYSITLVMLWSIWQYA

[9] = target: T4, safety screen panel of human pharmacological targets (Rattus norvegicus, UniProt P21396); details: read-out: percent inhibition: MAO-A (antagonist radioligand)
T4 sequence (P21396 1-526): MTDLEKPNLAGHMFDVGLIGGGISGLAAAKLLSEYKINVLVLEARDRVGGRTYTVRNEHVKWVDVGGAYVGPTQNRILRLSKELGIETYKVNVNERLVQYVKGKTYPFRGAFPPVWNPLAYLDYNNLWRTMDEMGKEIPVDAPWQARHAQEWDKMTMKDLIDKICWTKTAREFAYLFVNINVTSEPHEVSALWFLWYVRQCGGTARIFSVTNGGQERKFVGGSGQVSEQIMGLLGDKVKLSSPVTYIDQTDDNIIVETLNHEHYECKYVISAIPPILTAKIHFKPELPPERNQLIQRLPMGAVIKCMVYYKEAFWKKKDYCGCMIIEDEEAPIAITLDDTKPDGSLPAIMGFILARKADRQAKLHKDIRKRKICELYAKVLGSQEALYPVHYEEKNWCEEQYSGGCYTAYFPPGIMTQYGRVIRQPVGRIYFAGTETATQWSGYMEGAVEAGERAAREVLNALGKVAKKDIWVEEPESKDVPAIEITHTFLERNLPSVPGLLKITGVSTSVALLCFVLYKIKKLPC

Sequence of safety screen panel of human pharmacological targets (Homo sapiens, UniProt P43681) (P43681 27-627): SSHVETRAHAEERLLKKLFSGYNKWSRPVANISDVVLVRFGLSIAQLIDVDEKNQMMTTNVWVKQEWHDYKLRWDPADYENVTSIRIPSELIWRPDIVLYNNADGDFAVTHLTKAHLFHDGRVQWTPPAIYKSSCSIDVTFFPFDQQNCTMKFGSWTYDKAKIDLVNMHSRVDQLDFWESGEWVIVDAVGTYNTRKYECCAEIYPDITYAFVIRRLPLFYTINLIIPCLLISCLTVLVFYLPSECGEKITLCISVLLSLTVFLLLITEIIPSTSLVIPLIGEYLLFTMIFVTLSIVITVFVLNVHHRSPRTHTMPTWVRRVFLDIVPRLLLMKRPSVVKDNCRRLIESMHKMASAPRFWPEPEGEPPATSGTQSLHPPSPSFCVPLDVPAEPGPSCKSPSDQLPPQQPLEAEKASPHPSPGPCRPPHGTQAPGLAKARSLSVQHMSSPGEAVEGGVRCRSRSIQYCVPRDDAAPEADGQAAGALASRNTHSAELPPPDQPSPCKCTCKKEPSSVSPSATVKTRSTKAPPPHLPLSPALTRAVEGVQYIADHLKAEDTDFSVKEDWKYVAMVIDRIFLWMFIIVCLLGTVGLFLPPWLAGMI
Sequence of safety screen panel of human pharmacological targets (Homo sapiens, UniProt P34972) (P34972 whole entry): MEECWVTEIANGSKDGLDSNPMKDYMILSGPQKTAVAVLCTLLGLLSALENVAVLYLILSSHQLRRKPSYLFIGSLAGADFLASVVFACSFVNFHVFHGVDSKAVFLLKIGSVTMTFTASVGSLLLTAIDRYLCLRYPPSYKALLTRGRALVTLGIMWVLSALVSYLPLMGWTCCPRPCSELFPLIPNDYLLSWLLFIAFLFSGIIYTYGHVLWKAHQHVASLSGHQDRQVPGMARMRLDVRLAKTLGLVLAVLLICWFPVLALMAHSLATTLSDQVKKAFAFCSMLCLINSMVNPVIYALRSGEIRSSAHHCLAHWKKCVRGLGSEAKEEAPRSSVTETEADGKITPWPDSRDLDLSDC
Sequence of safety screen panel of human pharmacological targets (Homo sapiens, UniProt P08588) (P08588 whole entry): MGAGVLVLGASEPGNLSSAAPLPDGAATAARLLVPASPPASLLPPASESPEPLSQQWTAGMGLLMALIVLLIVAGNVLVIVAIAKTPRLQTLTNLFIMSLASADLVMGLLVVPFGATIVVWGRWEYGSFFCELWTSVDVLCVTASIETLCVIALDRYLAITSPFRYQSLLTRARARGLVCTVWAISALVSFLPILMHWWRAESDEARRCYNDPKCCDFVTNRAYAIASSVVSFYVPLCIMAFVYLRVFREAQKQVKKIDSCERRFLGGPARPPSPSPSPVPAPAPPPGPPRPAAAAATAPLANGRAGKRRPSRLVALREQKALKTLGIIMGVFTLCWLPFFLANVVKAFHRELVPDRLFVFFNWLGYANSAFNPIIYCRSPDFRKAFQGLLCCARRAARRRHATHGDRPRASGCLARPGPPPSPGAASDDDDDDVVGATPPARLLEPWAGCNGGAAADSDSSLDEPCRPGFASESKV
Sequence of safety screen panel of human pharmacological targets (Homo sapiens, UniProt P07550) (P07550 whole entry): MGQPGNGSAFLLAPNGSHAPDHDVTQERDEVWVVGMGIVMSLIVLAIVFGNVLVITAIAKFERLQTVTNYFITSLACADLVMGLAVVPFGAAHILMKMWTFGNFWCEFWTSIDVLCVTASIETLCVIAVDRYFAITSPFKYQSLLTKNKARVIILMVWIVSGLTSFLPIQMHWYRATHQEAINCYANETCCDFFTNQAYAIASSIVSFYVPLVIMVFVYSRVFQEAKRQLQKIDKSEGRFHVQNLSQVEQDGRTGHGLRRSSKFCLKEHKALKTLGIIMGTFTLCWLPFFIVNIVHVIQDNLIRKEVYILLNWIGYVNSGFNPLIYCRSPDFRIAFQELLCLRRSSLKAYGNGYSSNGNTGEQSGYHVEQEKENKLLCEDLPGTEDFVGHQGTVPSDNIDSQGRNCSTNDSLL
Sequence of safety screen panel of human pharmacological targets (Homo sapiens, UniProt P25021) (P25021 whole entry): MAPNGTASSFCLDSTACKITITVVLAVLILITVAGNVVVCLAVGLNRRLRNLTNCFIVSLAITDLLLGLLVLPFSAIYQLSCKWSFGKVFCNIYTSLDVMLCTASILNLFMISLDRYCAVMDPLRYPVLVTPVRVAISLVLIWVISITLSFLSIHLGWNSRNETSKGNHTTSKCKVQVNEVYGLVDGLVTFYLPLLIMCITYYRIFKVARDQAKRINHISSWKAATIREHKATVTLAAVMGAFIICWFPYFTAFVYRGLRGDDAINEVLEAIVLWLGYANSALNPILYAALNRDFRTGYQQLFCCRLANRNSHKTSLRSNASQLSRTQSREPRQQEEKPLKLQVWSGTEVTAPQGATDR

Row | SMILES | inhibition at 10 µM [1] [%] | inhibition at 10 µM [2] [%] | inhibition at 10 µM [3] [%] | inhibition at 10 µM [4] [%] | inhibition at 10 µM [5] [%] | inhibition at 10 µM [6] [%] | inhibition at 10 µM [7] [%] | inhibition at 10 µM [8] [%] | inhibition at 10 µM [9] [%]
1 | CCCCCc1cc(O[C@@H]2O[C@H](CO)[C@@H](O)[C@H](O)[C@H]2O)c2c(c1)OC(C)(C)[C@@H]1CCC(C)=C[C@@H]21 [VB302, Δ9THC-1-O-glucopyranoside] | 2 | 7 | 4 | -11 | -31 | 22 | 7 | -4 | 5
2 | CCCCCc1cc(O)c2c(c1)OC(C)(C)[C@@H]1CCC(C)=C[C@@H]21 [VB301, Δ9-Terahydrocannabinol, reference compound] | -12 | 1 | 13 | -6 | 87 | 97 | 1 | -21 | 1
3 | CCCCCc1cc(O[C@@H]2O[C@H](CO[C@@H]3O[C@H](CO)[C@@H](O)[C@H](O)[C@H]3O)[C@@H](O[C@@H]3O[C@H](CO)[C@@H](O)[C@H](O)[C@H]3O)[C@H](O)[C@H]2O)c2c(c1)OC(C)(C)[C@@H]1CCC(C)=C[C@@H]21 [VB311] | -1 | 0 | 10 | -10 | 17 | 17 | -1 | -13 | 2
